Data set [1] has as its system 16HBE cells. In words: TER measurement of tight junction disruption in 16HBE cells. As to conditions: 12 and 96 μM, over 24 hours. Type of data set: cell-based, human. Here is the method:
PHFK were isolated from discarded foreskin tissue. Isolation and propagation procedures for both PHFK and 16HBE cells were done as previously described (Poumay, Roland, Leclercq-Smekens, & Leloup, 1994; Saatian et al., 2013).
10 mgs of synthesized TJDP (RS SYNTHESIS) was dissolved in 100 μl of DMSO (SIGMA). Dissolved peptide was then diluted in pre-warmed (55 ° C.) DMSO/PLURONIC F127® (SPECTRUM) solution formulated in PBS (0.6% / 0.12%, respectively). This solution was heated at 55° C. for 30 minutes then homogenized into detergent using a water bath sonicator (BRANSON 2200) for 10 minutes and vortexed for 1 minute. Peptide was stored at 4° C. until use.
TER and paracellular flux were done as previously published (De Benedetto, Rafaels, et al., 2011). […] 2 μM of fluorescently-labeled antibody (palivizumab) was added to cells after 24 hours of exposure to TJDP and paracellular flux was measured 30 minutes and 18 hours later.
Initial experiments employed the human bronchial epithelial cell line, 16HBE since this cell line is known for its robust TJ formation (Saatian et al., 2013). […] The honeycomb fluorescence pattern of these proteins on the cell surface is a hallmark of a barrier competent TJ (Furuse, Fujita, Hiiragi, Fujimoto, & Tsukita, 1998; Furuse et al., 1993). […] The antibody diffusion was measured at 30 min to reduce the likelihood that active transcellular transport was measured.

The subject of data set [2] is 16HBE cells. In words: WST-1 cell viability assay in 16HBE cells. As to conditions: 50 μM, highest concentration tested. Type of data set: cell-based, human. Here is the method:
(§1) For cytotoxicity measurements, cells were plated at a density of 75,000 cells/well in a 96-well plate and grown to confluence (2 days). Cells were then exposed to vehicle or TJDP and viability was measured at 24, 48 and 96 hours. WST-1 reagent (ROCHE) was diluted 20-fold into each well, and cells were incubated at 37° C. Duplicate readings were taken at 0.5 and 1 hour after addition using a THERMO MULTISKAN EX plate reader (A450—background A620). Media only wells were subtracted and values were normalized to media treated controls.
(In general: Tetrazolium assays rely on reduction of a dye to a coloured formazan, in cell work by metabolically active cells.)

For data set [3], the system named is primary human foreskin keratinocytes (PHFK). In words: WST-1 cell viability assay in PHFK. The format is cell-based. Here is the method: as §1

No end group written: not given here.

On to (FKFE)2, for which the “effect on TER values (control peptide)” value in data set [1] is recorded as “did not affect TER values”.
On to “SILTGVSTLDQSLKQLSNFSQAVSTQSSR [Peptide 2]”, for which the “viability (WST-1)” value in data set [2] is “no loss of viability”. For the same substance, the “toxicity (WST-1)” value in data set [3] (30 μM, p<0.05) is recorded as “Modest toxicity”. Besides, the “cell death (WST-1)” value in data set [3] (lower concentrations with robust inhibition of TJ formation) is “no appreciable cell death”.
Take “SSVSQSTGQIQSKVFDSLLNLSSTLQATR [Peptide 1]”: the “viability (WST-1)” value in data set [2] was “no loss of viability”.

For the origin of these results see patent US20220249364A1, “Designed Inhibitors of Tight Junction Formation” (University of Rochester, priority 2019, published 2022).
